This assay deals with T1, human PepT1 (SLC15A1) (Homo sapiens, UniProt P46059).
T1 construct: host or cells: MDCK-II
T1 sequence (P46059 1-708): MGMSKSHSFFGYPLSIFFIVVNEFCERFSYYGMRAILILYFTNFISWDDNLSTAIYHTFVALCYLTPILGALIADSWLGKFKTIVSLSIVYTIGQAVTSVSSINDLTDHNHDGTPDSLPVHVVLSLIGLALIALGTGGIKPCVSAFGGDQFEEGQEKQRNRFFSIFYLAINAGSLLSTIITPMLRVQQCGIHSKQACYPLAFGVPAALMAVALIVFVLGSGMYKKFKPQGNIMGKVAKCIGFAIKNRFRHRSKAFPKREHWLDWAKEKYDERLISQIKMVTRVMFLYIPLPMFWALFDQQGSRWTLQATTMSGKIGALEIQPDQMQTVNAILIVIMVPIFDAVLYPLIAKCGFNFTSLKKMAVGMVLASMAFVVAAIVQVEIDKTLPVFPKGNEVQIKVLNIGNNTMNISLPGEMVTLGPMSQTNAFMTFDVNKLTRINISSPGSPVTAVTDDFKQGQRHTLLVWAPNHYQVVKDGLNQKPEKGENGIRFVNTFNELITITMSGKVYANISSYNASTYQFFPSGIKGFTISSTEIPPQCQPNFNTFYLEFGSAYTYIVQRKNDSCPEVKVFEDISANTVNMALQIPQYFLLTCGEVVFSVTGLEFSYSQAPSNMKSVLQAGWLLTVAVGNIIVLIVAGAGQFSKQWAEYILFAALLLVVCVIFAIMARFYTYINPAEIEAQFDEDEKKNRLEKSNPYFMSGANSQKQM
As to the kind of experiment: Inhibition of PepT1 uptake of probe substrate Gly-Sar in MDCK-II cells. It is filed as cell-based. Particulars: probe Gly-Sar 50 µM; positive control losartan 200 µM; pH 5.5. How it is done: Transport studies with human PepT1 (SLC15A1), LAT1 (SLC7A5) and MCT1 (SLC16A1) were conducted in MDCK-II cells expressing the human transporter or control cells expressing a vector with Green Fluorescence Protein. Cells were transfected using a proprietary, transient transfection system (OPTI-EXPRESSION Technology, BioIVT). The results from the control cells were used to correct for substrate permeation by routes other than the transporter being investigated in the study. […] Specifically, Net Transporter Mediated Substrate Uptake (pmol/min/cm^2) = (Cellular accumulation in the presence of the transporter) − (Mean cellular accumulation in the absence of the transporter). MDCK-II cells were maintained in DMEM with low glucose and 10% FBS. Cells were used at passages up to 40 were seeded at 60,000 ± 10,000 cells/well on 96-well plates approximately 24 h before transfection, and transport assays were performed approximately 48 h after transfection. […]
Transport studies with PepT1 were conducted in 96-well cell culture plate with wells containing a monolayer of MDCK-II cells grown on a permeable support and a corresponding 96-well receiver tray. […] Then a 30-µL sample was taken and mixed with 200 µL of scintillation fluid and scintillation counted (1450 Microbeta, Perkin-Elmer). […]

What is called IC50 is the concentration that gives 50% inhibition. Higher therefore signals weaker potency.

With `CC(=O)N[C@@H](CC(C)C)C(=O)O` [N-acetyl-L-leucine], inhibition was half-maximal at 740 µM (IC50).
